Assay results reported in patent publication US20190150445A1, “SUBSTITUTED HALOGEN(THIO)ACYL COMPOUNDS” (priority 2016, published 2019).
Where two headings read alike, the source gives them in different places.

Legend:
Myzus persicae [1] = assay: Myzus persicae spray test; assay type: in vivo; settings: in Brassica rapa, foliar
Procedure: Myzus persicae—spray test
(§1) To produce a suitable preparation of active compound, 1 part by weight of active compound is mixed with the stated amount of solvents and is diluted with water, containing an emulsifier concentration of 1000 ppm, to the desired concentration. Further test concentrations are prepared by dilution with emulsifier containing water.
Chinese cabbage (Brassica pekinensis) leaf disks infected with all instars of the green peach aphid (Myzus persicae), are sprayed with a preparation of the active ingredient of the desired concentration.
After 5-6 days mortality in % is determined. 100% means all aphids have been killed and 0% means none of the aphids have been killed.

Nezara viridula = Nezara viridula spray test (solvent 52.5 parts acetone, 7 parts dimethylformamide); assay type: in vivo; settings: in Hordeum vulgare, 96 h
Procedure: Nezara viridula—spray test
To produce a suitable preparation of active compound, 1 part by weight of active compound is mixed with the stated amount of solvent, and the concentrate is diluted with water, containing an emulsifier concentration of 1000 ppm, to the desired concentration Ammonium salt and/or penetration enhancer in a dosage of 1000 ppm are added to the desired concentration if necessary.
Barley plants (Hordeum vulgare) infested with larvae of the southern green stink bug (Nezara viridula) are sprayed with a test solution containing the desired concentration of the active ingredient.
After 4 days mortality in % is determined. 100% means all the stink bugs have been killed; 0% means none of the stink bugs have been killed.

Musca domestica = Musca domestica test (MUSCDO); assay type: in vivo; settings: 48 h
Procedure: Musca domestica—test (MUSCDO)
(§2) Solvent: dimethyl sulfoxide
To produce a suitable preparation of active compound, 10 mg of active compound are dissolved in 0.5 ml solvent, and the concentrate is diluted with water to the desired concentration.
10 adult house flies (Musca domestica) are transferred into a container, containing a sponge soaked with a mixture of sugar solution and compound solution of the desired concentration.
After 2 days mortality in % is determined. 100% means all the flies have been killed; 0% means none of the flies have been killed.

Ctenocephalides felis [2] = assay: Ctenocephalides felis in-vitro contact test, adult cat flea; assay type: in vivo; settings: 5 μg/cm^2 (=500 g/ha), after 48 hours
Procedure: Ctenocephalides felis—in-vitro contact tests adult cat flea
9 mg compound is solved in 1 ml acetone and diluted with acetone to the desired concentration. 250 μl of the test solution is filled in 25ml glass test tubes and homogeneously distributed on the inner walls by rotation and tilting on a shaking device (2 h at 30 rpm). With a compound concentration of 900 ppm, an inner surface of 44,7 cm^2 and a homogeneous distribution, a dose of 5 μg/cm^2 is achieved.
After the solvent has evaporated, each test tube is filled with 5-10 adult cat fleas (Ctenocephalides felis), closed with a perforated lid and incubated in a lying position at room temperature and relative humidity. After 48 hours efficacy is determined. The fleas are patted on the ground of the tubes and are incubated on a heating plate at 45-50° C. for at most 5 minutes Immotile or uncoordinated moving fleas, which are not able to escape the heat by climbing upwards, are marked as dead or moribund.
An efficacy of 100% means all fleas are dead or moribund; 0% means no fleas are dead or moribund.

Diabrotica balteata = Diabrotica balteata spray test; assay type: in vivo; settings: 160 gg/well, larvae on germinated wheat seeds, after 7 days
Procedure: Diabrotica balteata—spray test
Further test concentrations are prepared by dilution with emulsifier containing water.
Soaked wheat seeds (Trificum aestivum) are placed in a multiple well plate filled with agar and some water and are incubated for 1 day to germinate (5 seeds per well). The germinated wheat seeds are sprayed with a test solution containing the desired concentration of the active ingredient. Afterwards each unit is infected with 10-20 larvae of the banded cucumber beetle (Diabrofica balteata).
After 7 days efficacy in % is determined.

Lucilia cuprina = Lucilia cuprina test (LUCICU); assay type: in vivo; settings: 48 h
Procedure: Lucilia cuprina—test (LUCICU)
as §2
10 mg active compound are dissolved in 0,5 ml Dimethylsulfoxid. Serial dilutions are made to obtain the desired rates.
Approximately 20 1st instar larvae of the Australian sheep blowfly (Lucilia cuprina) are transferred into a test tube containing minced horse meat and compound solution of the desired concentration.
After 2 days mortality in % is determined. 100% means all the larvae have been killed; 0% means none of the larvae have been killed.

LogP-Value (HCOOH) = assay type: physicochemical; settings: for chromatographic logP: HCOOH (formic acid)
Nilaparvata lugens [3] = assay: Nilaparvata lugens spray test (solvent 52.5 parts acetone, 7 parts dimethylformamide); assay type: in vivo; settings: in Oryza sativa, 96 h
Procedure: (§3) Nilaparvata Wens—spray test
To produce a suitable preparation of active compound, 1 part by weight of active compound is mixed with the stated amount of solvents and is diluted with water, containing an emulsifier concentration of 1000 ppm, to the desired concentration. Further test concentrations are prepared by dilution with emulsifier containing water Ammonium salt and/or penetration enhancer in a dosage of 1000 ppm are added to the desired concentration if necessary.
Rice plants (Oryza sativa) are treated by being sprayed with the desired concentration of the active compound and are infested with larvae of the brown planthopper (Nilaparvata lugens).
(§4) After 4 days mortality in % is determined. 100% means all planthoppers have been killed and 0% means none of the planthoppers have been killed.

Ctenocephalides felis [4] = assay: Ctenocephalides felis oral test (CTECFE); assay type: in vivo; settings: 48 h, 100 ppm in cattle blood, adult unfed cat fleas, after 2 days
Procedure: Ctenocephalides felis—oral test (CTECFE)
as §2
To produce a suitable preparation of active compound, 10 mg of active compound are dissolved in 0.5 ml solvent, and the concentrate is diluted with cattle blood to the desired concentration.
Approximately 20 adult unfed cat fleas (Ctenocephalides felis) are placed in flea chambers. The blood chamber, sealed with parafilm on the bottom, are filled with cattle blood supplied with compound solution and placed on the gauze covered top of the flea chamber, so that the fleas are able to suck the blood. The blood chamber is heated to 37° C. whereas the flea chamber is kept at room temperature.
After 2 days mortality in % is determined. 100% means all the fleas have been killed; 0% means none of the fleas have been killed.

Myzus persicae [5] = assay: Myzus persicae oral test; assay type: in vivo; settings: 120 h
Procedure: To produce a suitable preparation of active compound, 1 part by weight of active compound is mixed with the stated amount of solvent, and the concentrate is diluted with water to the desired concentration.
50 μl compound solution is filled in microtiter plates and 150 μl IPL41 insect medium (33% +15% sugar) is added to obtain a total volume of […] per well. Afterwards the plates are sealed with parafilm through which a mixed population of the green peach aphid (Myzus persicae) can suck on the compound preparation.
After 5 days mortality in % is determined. 100% means all aphids have been killed and 0% means none of the aphids have been killed.

Nilaparvata lugens [6] = assay: Nilaparvata lugens spray test (solvent 78.0 parts acetone, 1.5 parts dimethylformamide); assay type: in vivo; settings: in Oryza sativa, 96 h
Procedure: as §3, §1
Rice plants (Oryza sativa) are sprayed with a preparation of the active ingredient of the desired concentration and the plants are infested with the brown planthopper (Nilaparvata lugens).
as §4

Phaedon cochleariae = Phaedon cochleariae spray test; assay type: in vivo; settings: foliar, 168 h, larvae on Chinese cabbage leaf disks, after 7 days
Procedure: Phaedon cochleariae—spray test
as §1
Chinese cabbage (Brassica pekinensis) leaf disks are sprayed with a preparation of the active ingredient of the desired concentration. Once dry, the leaf disks are infested with mustard beetle larvae (Phaedon cochleariae).
After 7 days mortality in % is determined. 100% means all beetle larvae have been killed and 0% means none of the beetle larvae have been killed.

[7] = 100 ppm, 1st instar larvae, after 2 days, read-out: mortality

Structure (SMILES) | mortality at 100 g/ha (Myzus persicae [1]) | mortality at 500 g/ha (Nezara viridula) | mortality at 20 ppm (Musca domestica) | efficacy (fleas dead or moribund) (Ctenocephalides felis [2]) | efficacy (seedlings grown up) (Diabrotica balteata) | mortality at 100 ppm (Lucilia cuprina) | LogP-Value (HCOOH) (LogP-Value (HCOOH)) | chromatographic logP (LogP-Value (HCOOH)) | mortality at 500 g/ha (Nilaparvata lugens [3]) | mortality at 100 ppm (Ctenocephalides felis [4]) | mortality at 100 ppm (Lucilia cuprina; [7]) | mortality at 4 ppm (Myzus persicae [5]) | mortality at 20 ppm (Myzus persicae [5]) | mortality at 500 g/ha (Nilaparvata lugens [6]) | mortality at 500 g/ha (Phaedon cochleariae)
O=C(/C=C1\SCCN1Cc1cnc(Cl)c(F)c1)C(F)(F)F [Example I-1] | 100% | 100% | 90% | 100% | 100% | 100% | 2,48 | 2.47 | 100% |  |  |  |  |  | 
O=C(/C=C1\NCCN1Cc1cnc(Cl)c(F)c1)C(F)(F)F [Example I-2, 3-[1-[(6-Chloro-5-fluoro-3-pyridinyl)methyl]-2-imidazolidinylidene]-1,1,1-trifluoro-2-propanone] | 100% | 90% | 100% | 100% | 100% |  |  | 2.19 | 100% | 100% | 100% |  |  |  | 
Fc1cc(CN2CCS/C2=C\C(=S)C(F)(F)F)cnc1Cl [Example I-3, 3-[3-[(6-Chloro-5-fluoro-3-pyridinyl)methyl]-2-thiazolidinylidene]-1,1,1-trifluoro-2-propanthione] |  |  |  |  | 100% | 100% |  | 1.2 |  |  |  | 100% | 100% | 100% | 
Fc1cc(CN2CCN/C2=C\C(=S)C(F)(F)F)cnc1Cl [Example I-4, 3-[1-[(6-Chloro-5-fluoro-3-pyridinyl)methyl]-2-imidazolidinylidene]-1,1,1-trifluoro-2-propanthione] |  |  |  | 100% | 100% |  | 2,61 | 2.59 |  | 95% | 100% | 100% |  | 100% | 83%
